Experimental findings from ChEMBL document CHEMBL4680245, “Design, synthesis and biological evaluation of tetrahydroquinoline-based reversible LSD1 inhibitors” (Eur J Med Chem, 2020) are described below.

Data set [1] has as its target Lysine-specific histone demethylase 1A (Homo sapiens, UniProt O60341).
Description: Inhibition of human recombinant LSD1 using fluorogenic ADHP based substrate preincubated for 30 mins followed by substrate addition measured after 10 mins by horseradish peroxidase coupled fluorescence assay
In a further data set the test system is NB-4. Nature of the data set: cells. The note with it: Homo sapiens, NB-4, 72 h.
A further data set relates to PC-3. In words: cells. The note with it: Homo sapiens, PC-3, 72 h.
The subject of a further data set is MCF7. Nature of the data set: cells. The note with it: Homo sapiens, MCF7, 72 h.
A further data set deals with THP-1. Nature of the data set: cells. The note with it: Homo sapiens, THP-1, 72 h.
For another data set, the system named is MGC-803. Nature of the data set: cells. The note with it: Homo sapiens, MGC-803, 72 h.
Another data set concerns A549. In words: cells. The note with it: Homo sapiens, A549, 72 h.
The nature of data set [2]: Solubility of compound. It counts as physicochemical.

Description for A549: Antiproliferative activity against human A549 cells incubated for 72 hrs by CCK8 assay
Description for MCF7: Antiproliferative activity against human MCF7 cells incubated for 72 hrs by CCK8 assay
Description for MGC-803: Antiproliferative activity against human MGC-803 cells incubated for 72 hrs by CCK8 assay
Description for NB-4: Antiproliferative activity against human NB-4 cells incubated for 72 hrs by CCK8 assay
Description for PC-3: Antiproliferative activity against human PC-3 cells incubated for 72 hrs by CCK8 assay
Description for THP-1: Antiproliferative activity against human THP-1 cells incubated for 72 hrs by CCK8 assay

As for `O=C(Nc1cccc2c1N(Cc1ccc(OC3CCNCC3)cc1)CCC2)c1cc2ccccc2n1CCF`, the IC50 in data set [1] worked out at 0.06 nM; with NB-4, 3290 nM; with PC-3 it was 2600 nM; with MCF7, 6960 nM; with THP-1, 9780 nM; in the data set with MGC-803 it was 6260 nM. For the same molecule, the IC50 in the data set with A549 amounted to 7670 nM.
Regarding `Cn1c(C(=O)Nc2cccc3c2N(Cc2ccc(OC[C@@H]4CCNC4)cc2)CCC3)cc2sccc21`, the IC50 in data set [1] is 80.4 nM; in the data set with A549, 5230 nM.
For the molecule `Cn1c(C(=O)Nc2cccc3c2N(Cc2ccc(OCc4ccc([N+](=O)[O-])cc4)cc2)CCC3)cc2sccc21`, the IC50 in data set [1] is > 50000 nM.
`Cn1c(C(=O)Nc2cccc3c2N(Cc2ccc(OCCCN)cc2)CCC3)cc2sccc21` displayed an IC50 in data set [1] of 47.4 nM.
The same measure, in the same setting: for `O=C(Nc1cccc2c1N(Cc1ccc(OC3CCNCC3)cc1)CCC2)c1ccc(C(F)(F)F)cc1F` the value was 5.12 nM; for `Cn1c(C(=O)Nc2cccc3c2N(Cc2ccc(OC4CCNCC4)cc2)CCC3)cc2cc(Cl)ccc21`, 16.3 nM; for `O=C(Nc1cccc2c1N(Cc1ccc(OC3CCNCC3)cc1)CCC2)c1ccc(C(F)(F)F)nc1`, > 50 nM.
In turn, `O=C(Nc1cccc2c1N(Cc1ccc(OC3CCNCC3)cc1)CCC2)c1cc2ccccc2n1CC(F)F` gave an IC50 in data set [1] of 0.78 nM.
In the case of `Cn1c(C(=O)Nc2cccc3c2N(Cc2ccc(OCC4CC[N+](C)(C)CC4)cc2)CCC3)cc2sccc21`, the IC50 in data set [1] worked out at 17.3 nM. Besides, the solubility entry in data set [2] is recorded as “Insoluble”.
The molecule `O=C(Nc1cccc2c1N(Cc1ccc(OC3CCNCC3)cc1)CCC2)c1cc2ccccc2s1` showed an IC50 in data set [1] of 0.93 nM.
Still for that read-out and setting: for `O=C(Nc1cccc2c1N(Cc1ccc(OC3CCNCC3)cc1)CCC2)c1cc2ccccc2[nH]1` the value was 2.81 nM.
Still for that read-out and setting: for `O=C(Nc1cccc2c1N(Cc1ccc(OC3CCNCC3)cc1)CCC2)c1cccc2[nH]ccc12` the value was 0.54 nM; for `Cn1c(C(=O)Nc2cccc3c2N(Cc2ccc(OCc4cccc(C#N)c4)cc2)CCC3)cc2sccc21`, > 50000 nM; for `Cc1ccc2c(c1)cc(C(=O)Nc1cccc3c1N(Cc1ccc(OC4CCNCC4)cc1)CCC3)n2C`, > 50 nM.
Still for that read-out and setting: for `CCCn1c(C(=O)Nc2cccc3c2N(Cc2ccc(OC4CCNCC4)cc2)CCC3)cc2ccccc21` the value was 1.52 nM; for `O=C(Nc1cccc2c1N(Cc1ccc(OC3CCNCC3)cc1)CCC2)c1cc2ccccc2n1C(F)F`, 0.39 nM; for `Cn1c(C(=O)Nc2cccc3c2N(Cc2ccc(OCC4CCOCC4)cc2)CCC3)cc2sccc21`, 732 nM.
Molecule `O=C(Nc1cccc2c1N(Cc1ccc(OC3CCNCC3)cc1)CCC2)c1ccc(C(F)(F)F)cc1` showed an IC50 in data set [1] of 1.82 nM.
`Cn1c(C(=O)Nc2cccc3c2N(Cc2ccc(OC4CCNC4)cc2)CCC3)cc2sccc21` (centres undefined): the IC50 in data set [1] stood at 46.8 nM; in the data set on A549 it was 3640 nM.
In data set [1], `O=C(Nc1cccc2c1N(Cc1ccc(OC3CCNCC3)cc1)CCC2)c1cc2ccccc2n1CCCl` registered an IC50 of 0.15 nM.
The same measure, in the same setting: next, `O=C(Nc1cccc2c1N(Cc1ccc(OC3CCNCC3)cc1)CCC2)c1ccc2[nH]ccc2c1`: 4.58 nM; `Cn1c(C(=O)Nc2cccc3c2N(Cc2ccc(OC4CCNCC4)cc2)CCC3)cc2ccc(Cl)cc21`: 1.13 nM.
On the same count and under the same terms, next, `O=C(Nc1cccc2c1N(Cc1ccc(OC3CCNCC3)cc1)CCC2)c1cnc2ccccc2c1`: 18.8 nM.
Same read-out and setting: next, `O=C(Nc1cccc2c1N(Cc1ccc(OC3CCNCC3)cc1)CCC2)c1nc2ccccc2s1`: 0.92 nM.
In data set [1], `Cn1nc(C(=O)Nc2cccc3c2N(Cc2ccc(OC4CCNCC4)cc2)CCC3)c2ccccc21` gave an IC50 of 0.97 nM.
Molecule `Cn1c(C(=O)Nc2cccc3c2N(Cc2ccc(OC4CC[N+](C)(C)CC4)cc2)CCC3)cc2sccc21` had an IC50 in data set [1] of 8.25 nM. The solubility result in data set [2] was “Insoluble”.
`Cn1c(C(=O)Nc2cccc3c2N(Cc2ccc(OCc4cccc(C(N)=O)c4)cc2)CCC3)cc2sccc21`: the IC50 in data set [1] is > 50000 nM.
Take `Cn1c(C(=O)Nc2cccc3c2N(Cc2ccc(O[C@H]4CC[C@H](N)CC4)cc2)CCC3)cc2sccc21`: in data set [1], half-maximal inhibition (IC50) required 36.6 nM.
Consider `N[C@H]1CC[C@H](N[C@H]2C[C@@H]2c2ccccc2)CC1`, for which the IC50 with NB-4, in the data set with PC-3, in the data set on MCF7, in the data set with THP-1, in the data set on MGC-803 and in the data set with A549 was > 30000 nM in each case.
Turning to `Cn1c(C(=O)Nc2cccc3c2N(Cc2ccc(OCc4ccc(C#N)cc4)cc2)CCC3)cc2sccc21`, the IC50 in data set [1] is > 50000 nM.
Same read-out and setting: for `COc1ccc2c(c1)cc(C(=O)Nc1cccc3c1N(Cc1ccc(OC4CCNCC4)cc1)CCC3)n2C` the value was > 50 nM; for `CN1CCC(Oc2ccc(CN3CCCc4cccc(NC(=O)c5cc6sccc6n5C)c43)cc2)CC1`, 38.2 nM; for `Cn1c(C(=O)Nc2cccc3c2N(Cc2ccc(O[C@H]4CC[C@H](N(C)C)CC4)cc2)CCC3)cc2sccc21`, 36.3 nM.
Turning to `Cn1c(C(=O)Nc2cccc3c2N(Cc2ccc(OC4CCNCC4)cc2)CCC3)cc2sccc21`, the IC50 in data set [1] was 36.4 nM; in the data set on NB-4, 2780 nM; in the data set with PC-3, 3640 nM; with MCF7, 5720 nM; in the data set on THP-1, 18100 nM; with MGC-803 it was 2170 nM. The molecule further registered an IC50 with A549 of 1250 nM.
On to `Cn1c(C(=O)Nc2cccc3c2N(Cc2ccc(OCc4cccc([N+](=O)[O-])c4)cc2)CCC3)cc2sccc21`, for which the IC50 in data set [1] was > 50000 nM.
The same measure, in the same setting: next, `O=C(Nc1cccc2c1N(Cc1ccc(OC3CCNCC3)cc1)CCC2)c1ccc2ccccc2n1`: 13.1 nM.
Still for that read-out and setting: next, `Cn1ccc2cccc(C(=O)Nc3cccc4c3N(Cc3ccc(OC5CCNCC5)cc3)CCC4)c21`: 4.44 nM; `Cn1cc(C(=O)Nc2cccc3c2N(Cc2ccc(OC4CCNCC4)cc2)CCC3)c2ccccc21`: 4.55 nM.
The same measure, in the same setting: for `Cc1ccncc1C(=O)Nc1cccc2c1N(Cc1ccc(OC3CCNCC3)cc1)CCC2` the value was 1.56 nM.
As for `CN(C)CCCOc1ccc(CN2CCCc3cccc(NC(=O)c4cc5sccc5n4C)c32)cc1`, in data set [1], half-maximal inhibition (IC50) was put at 31.3 nM.
With `CCn1c(C(=O)Nc2cccc3c2N(Cc2ccc(OC4CCNCC4)cc2)CCC3)cc2ccccc21`, the IC50 was 0.15 nM in data set [1]; 1100 nM with NB-4; 5430 nM in the data set on PC-3; 5590 nM in the data set with MCF7; 10200 nM with THP-1; 3670 nM in the data set with MGC-803. Further, the IC50 in the data set with A549 worked out at 8390 nM.
As to `CNc1cccc(COc2ccc(CN3CCCc4cccc(NC(=O)c5cc6sccc6n5C)c43)cc2)c1`, the IC50 in data set [1] was > 50000 nM.
Molecule `O=C(Nc1cccc2c1N(Cc1ccc(OC3CCNCC3)cc1)CCC2)c1cc2ccccc2n1CC1CC1` yielded an IC50 in data set [1] of 2.65 nM.
Turning to `Cn1ccc2cc(C(=O)Nc3cccc4c3N(Cc3ccc(OC5CCNCC5)cc3)CCC4)ccc21`, in data set [1], the IC50 is 25.6 nM.
The same measure, in the same setting: next, `O=C(Nc1cccc2c1N(Cc1ccc(OC3CCNCC3)cc1)CCC2)c1cc2ccccc2o1`: 0.53 nM; `CC(C)n1c(C(=O)Nc2cccc3c2N(Cc2ccc(OC4CCNCC4)cc2)CCC3)cc2ccccc21`: 0.18 nM.
On the same count and under the same terms, next, `CN(C)c1cccc(COc2ccc(CN3CCCc4cccc(NC(=O)c5cc6sccc6n5C)c43)cc2)c1`: > 50000 nM; `Cn1c(C(=O)Nc2cccc3c2N(Cc2ccc(OCc4ccc(N)cc4)cc2)CCC3)cc2sccc21`: > 50000 nM; `O=C(Nc1cccc2c1N(Cc1ccc(OC3CCNCC3)cc1)CCC2)c1nc2ccccc2[nH]1`: 2.31 nM.
The same measure, in the same setting: next, `Cn1c(C(=O)Nc2cccc3c2N(Cc2ccc(OC[C@H]4CCNC4)cc2)CCC3)cc2sccc21`: 149 nM; `Cn1c(C(=O)Nc2cccc3c2N(Cc2ccc(OCc4ccc(C(N)=O)cc4)cc2)CCC3)cc2sccc21`: > 50000 nM.
As for `Cn1c(C(=O)Nc2cccc3c2N(Cc2ccc(O[C@H]4CC[C@@H](N)CC4)cc2)CCC3)cc2sccc21`, the IC50 is 38.3 nM in data set [1] and 7300 nM in the data set on A549.
`Cn1ccc2c(C(=O)Nc3cccc4c3N(Cc3ccc(OC5CCNCC5)cc3)CCC4)cccc21` yielded an IC50 in data set [1] of 3.92 nM.
For `Cn1c(C(=O)Nc2cccc3c2N(Cc2ccc(OCC4CCNCC4)cc2)CCC3)cc2sccc21`, the IC50 in data set [1] was 37.7 nM; with NB-4, 2880 nM; with PC-3, 4070 nM; in the data set with MCF7, 6590 nM; with THP-1, 20400 nM; with MGC-803, 3690 nM. In the data set on A549, the IC50 is 2820 nM.
On to `CN1CCC(COc2ccc(CN3CCCc4cccc(NC(=O)c5cc6sccc6n5C)c43)cc2)CC1`, for which, in data set [1], the IC50 was 53.5 nM.
